From ChEMBL document CHEMBL5346961, “Discovery and Evaluation of 3-Quinoxalin Urea Derivatives as Potent, Selective, and Orally Available ATM Inhibitors Combined with Chemotherapy for the Treatment of Cancer via Goal-Oriented Molecule Generation and Virtual Screening” (J Med Chem, 2023)
Active and inactive are the calls of the source. No cut-off for these calls is given here.

Key:
[1] = Metabolic stability in human liver microsomes assessed as clearance at 1 uM in presence of NADPH-regenerating system by LC-MS/MS analysis; assay type: ADME, Microsome
HCT-116 [2] = assay: Antiproliferative activity against human HCT-116 cells assessed as cell survival at 1 uM incubated for 6 days by MTT assay relative to control; assay type: functional; details: HCT-116, 144 h, time 6 day, read-out: Survival
HCT-116 [3] = assay: Antiproliferative activity against human HCT-116 cells assessed as reduction in cell viability incubated for 6 days by MTT assay; assay type: functional, cell-based; details: HCT-116, 144 h
HCT-116 [4] = assay: Inhibition of colony formation in human HCT-116 cells assessed as assessed as fold change in IC50 in presence of ionizing radiation; assay type: functional
MCF7 = assay: Synergistic antiproliferative activity against human MCF7 cells assessed as fold increase in irinotecan IC50 at 200 nM measured after 6 days by MTT assay; assay type: functional; details: time 6 day
SW-620 [5] = assay: Synergistic antiproliferative activity against human SW620 cells assessed as fold increase in irinotecan IC50 at 100 nM measured after 6 days by MTT assay; assay type: functional; details: time 6 day
SW-620 [6] = assay: Synergistic antiproliferative activity against human SW620 cells assessed as fold increase in irinotecan IC50 at 200 nM measured after 6 days by MTT assay; assay type: functional; details: time 6 day
HCT-116 [7] = assay: Induction of apoptosis in human HCT-116 cells assessed as viable cells at 4 uM measured after 2 days in presence of irinotecan by AnnexinV-FITC/PI staining based analysis (reference value: 72.8%); assay type: functional; details: HCT-116, 48 h, time 2 day, read-out: Activity
HCT-116 [8] = assay: Induction of apoptosis in human HCT-116 cells assessed as viable cells at 2 uM measured after 2 days by AnnexinV-FITC/PI staining based analysis (reference value: 72.8%); assay type: functional; details: HCT-116, 48 h, time 2 day, read-out: Activity
HCT-116 [9] = assay: Induction of apoptosis in human HCT-116 cells assessed as viable cells at 4 uM measured after 2 days by AnnexinV-FITC/PI staining based analysis (reference value: 72.8%); assay type: functional; details: HCT-116, 48 h, time 2 day, read-out: Activity
HCT-116 [10] = assay: Induction of apoptosis in human HCT-116 cells assessed as early apoptotic cells at 4 uM measured after 2 days by AnnexinV-FITC/PI staining based analysis (reference value: 14.4%); assay type: functional; details: time 2 day
HCT-116 [11] = assay: Induction of apoptosis in human HCT-116 cells assessed as late apoptotic cells at 2 uM measured after 2 days by AnnexinV-FITC/PI staining based analysis (reference value: 12.2%); assay type: functional; details: time 2 day
HCT-116 [12] = assay: Induction of apoptosis in human HCT-116 cells assessed as necrotic cells at 1 uM measured after 2 days by AnnexinV-FITC/PI staining based analysis (reference value: 0.64%); assay type: functional; details: time 2 day
HCT-116 [13] = assay: Induction of apoptosis in human HCT-116 cells assessed as necrotic cells at 2 uM measured after 2 days by AnnexinV-FITC/PI staining based analysis (reference value: 0.64%); assay type: functional; details: time 2 day
HCT-116 [14] = assay: Induction of apoptosis in human HCT-116 cells assessed as necrotic cells at 4 uM measured after 2 days by AnnexinV-FITC/PI staining based analysis (reference value: 0.64%); assay type: functional; details: time 2 day
HCT-116 [15] = assay: Induction of apoptosis in human HCT-116 cells assessed as viable cells at 1 uM measured after 2 days in presence of irinotecan by AnnexinV-FITC/PI staining based analysis (reference value: 72.8%); assay type: functional; details: HCT-116, 48 h, time 2 day, read-out: Activity
HCT-116 [16] = assay: Induction of apoptosis in human HCT-116 cells assessed as viable cells at 2 uM measured after 2 days in presence of irinotecan by AnnexinV-FITC/PI staining based analysis (reference value: 72.8%); assay type: functional; details: HCT-116, 48 h, time 2 day, read-out: Activity
HCT-116 [17] = assay: Induction of apoptosis in human HCT-116 cells assessed as early apoptotic cells at 1 uM measured after 2 days in presence of irinotecan by AnnexinV-FITC/PI staining based analysis (reference value: 14.4%); assay type: functional; details: time 2 day
HCT-116 [18] = assay: Induction of apoptosis in human HCT-116 cells assessed as late apoptotic cells at 1 uM measured after 2 days in presence of irinotecan by AnnexinV-FITC/PI staining based analysis (reference value: 12.2%); assay type: functional; details: time 2 day
HCT-116 [19] = assay: Induction of apoptosis in human HCT-116 cells assessed as necrotic cells at 4 uM measured after 2 days in presence of irinotecan by AnnexinV-FITC/PI staining based analysis (reference value: 0.64%); assay type: functional; details: time 2 day
HCT-116 [20] = assay: Induction of cell cycle arrest in human HCT-116 cells assessed as increase in accumulation of cells at G2/M phase at 1 to 4 uM measured after 48 hrs in presence of irinotecan by propidium iodide staining based flow cytometry analysis; assay type: functional; details: dose 1-4 µM
[21] = biological target: DNA-dependent protein kinase catalytic subunit (Homo sapiens, UniProt P78527); assay: Inhibition of DNA-PK (unknown origin) at 1 uM in presence of [gamma33P-ATP] by scintillation counting method relative to control
Sequence of DNA-dependent protein kinase catalytic subunit (P78527 whole entry): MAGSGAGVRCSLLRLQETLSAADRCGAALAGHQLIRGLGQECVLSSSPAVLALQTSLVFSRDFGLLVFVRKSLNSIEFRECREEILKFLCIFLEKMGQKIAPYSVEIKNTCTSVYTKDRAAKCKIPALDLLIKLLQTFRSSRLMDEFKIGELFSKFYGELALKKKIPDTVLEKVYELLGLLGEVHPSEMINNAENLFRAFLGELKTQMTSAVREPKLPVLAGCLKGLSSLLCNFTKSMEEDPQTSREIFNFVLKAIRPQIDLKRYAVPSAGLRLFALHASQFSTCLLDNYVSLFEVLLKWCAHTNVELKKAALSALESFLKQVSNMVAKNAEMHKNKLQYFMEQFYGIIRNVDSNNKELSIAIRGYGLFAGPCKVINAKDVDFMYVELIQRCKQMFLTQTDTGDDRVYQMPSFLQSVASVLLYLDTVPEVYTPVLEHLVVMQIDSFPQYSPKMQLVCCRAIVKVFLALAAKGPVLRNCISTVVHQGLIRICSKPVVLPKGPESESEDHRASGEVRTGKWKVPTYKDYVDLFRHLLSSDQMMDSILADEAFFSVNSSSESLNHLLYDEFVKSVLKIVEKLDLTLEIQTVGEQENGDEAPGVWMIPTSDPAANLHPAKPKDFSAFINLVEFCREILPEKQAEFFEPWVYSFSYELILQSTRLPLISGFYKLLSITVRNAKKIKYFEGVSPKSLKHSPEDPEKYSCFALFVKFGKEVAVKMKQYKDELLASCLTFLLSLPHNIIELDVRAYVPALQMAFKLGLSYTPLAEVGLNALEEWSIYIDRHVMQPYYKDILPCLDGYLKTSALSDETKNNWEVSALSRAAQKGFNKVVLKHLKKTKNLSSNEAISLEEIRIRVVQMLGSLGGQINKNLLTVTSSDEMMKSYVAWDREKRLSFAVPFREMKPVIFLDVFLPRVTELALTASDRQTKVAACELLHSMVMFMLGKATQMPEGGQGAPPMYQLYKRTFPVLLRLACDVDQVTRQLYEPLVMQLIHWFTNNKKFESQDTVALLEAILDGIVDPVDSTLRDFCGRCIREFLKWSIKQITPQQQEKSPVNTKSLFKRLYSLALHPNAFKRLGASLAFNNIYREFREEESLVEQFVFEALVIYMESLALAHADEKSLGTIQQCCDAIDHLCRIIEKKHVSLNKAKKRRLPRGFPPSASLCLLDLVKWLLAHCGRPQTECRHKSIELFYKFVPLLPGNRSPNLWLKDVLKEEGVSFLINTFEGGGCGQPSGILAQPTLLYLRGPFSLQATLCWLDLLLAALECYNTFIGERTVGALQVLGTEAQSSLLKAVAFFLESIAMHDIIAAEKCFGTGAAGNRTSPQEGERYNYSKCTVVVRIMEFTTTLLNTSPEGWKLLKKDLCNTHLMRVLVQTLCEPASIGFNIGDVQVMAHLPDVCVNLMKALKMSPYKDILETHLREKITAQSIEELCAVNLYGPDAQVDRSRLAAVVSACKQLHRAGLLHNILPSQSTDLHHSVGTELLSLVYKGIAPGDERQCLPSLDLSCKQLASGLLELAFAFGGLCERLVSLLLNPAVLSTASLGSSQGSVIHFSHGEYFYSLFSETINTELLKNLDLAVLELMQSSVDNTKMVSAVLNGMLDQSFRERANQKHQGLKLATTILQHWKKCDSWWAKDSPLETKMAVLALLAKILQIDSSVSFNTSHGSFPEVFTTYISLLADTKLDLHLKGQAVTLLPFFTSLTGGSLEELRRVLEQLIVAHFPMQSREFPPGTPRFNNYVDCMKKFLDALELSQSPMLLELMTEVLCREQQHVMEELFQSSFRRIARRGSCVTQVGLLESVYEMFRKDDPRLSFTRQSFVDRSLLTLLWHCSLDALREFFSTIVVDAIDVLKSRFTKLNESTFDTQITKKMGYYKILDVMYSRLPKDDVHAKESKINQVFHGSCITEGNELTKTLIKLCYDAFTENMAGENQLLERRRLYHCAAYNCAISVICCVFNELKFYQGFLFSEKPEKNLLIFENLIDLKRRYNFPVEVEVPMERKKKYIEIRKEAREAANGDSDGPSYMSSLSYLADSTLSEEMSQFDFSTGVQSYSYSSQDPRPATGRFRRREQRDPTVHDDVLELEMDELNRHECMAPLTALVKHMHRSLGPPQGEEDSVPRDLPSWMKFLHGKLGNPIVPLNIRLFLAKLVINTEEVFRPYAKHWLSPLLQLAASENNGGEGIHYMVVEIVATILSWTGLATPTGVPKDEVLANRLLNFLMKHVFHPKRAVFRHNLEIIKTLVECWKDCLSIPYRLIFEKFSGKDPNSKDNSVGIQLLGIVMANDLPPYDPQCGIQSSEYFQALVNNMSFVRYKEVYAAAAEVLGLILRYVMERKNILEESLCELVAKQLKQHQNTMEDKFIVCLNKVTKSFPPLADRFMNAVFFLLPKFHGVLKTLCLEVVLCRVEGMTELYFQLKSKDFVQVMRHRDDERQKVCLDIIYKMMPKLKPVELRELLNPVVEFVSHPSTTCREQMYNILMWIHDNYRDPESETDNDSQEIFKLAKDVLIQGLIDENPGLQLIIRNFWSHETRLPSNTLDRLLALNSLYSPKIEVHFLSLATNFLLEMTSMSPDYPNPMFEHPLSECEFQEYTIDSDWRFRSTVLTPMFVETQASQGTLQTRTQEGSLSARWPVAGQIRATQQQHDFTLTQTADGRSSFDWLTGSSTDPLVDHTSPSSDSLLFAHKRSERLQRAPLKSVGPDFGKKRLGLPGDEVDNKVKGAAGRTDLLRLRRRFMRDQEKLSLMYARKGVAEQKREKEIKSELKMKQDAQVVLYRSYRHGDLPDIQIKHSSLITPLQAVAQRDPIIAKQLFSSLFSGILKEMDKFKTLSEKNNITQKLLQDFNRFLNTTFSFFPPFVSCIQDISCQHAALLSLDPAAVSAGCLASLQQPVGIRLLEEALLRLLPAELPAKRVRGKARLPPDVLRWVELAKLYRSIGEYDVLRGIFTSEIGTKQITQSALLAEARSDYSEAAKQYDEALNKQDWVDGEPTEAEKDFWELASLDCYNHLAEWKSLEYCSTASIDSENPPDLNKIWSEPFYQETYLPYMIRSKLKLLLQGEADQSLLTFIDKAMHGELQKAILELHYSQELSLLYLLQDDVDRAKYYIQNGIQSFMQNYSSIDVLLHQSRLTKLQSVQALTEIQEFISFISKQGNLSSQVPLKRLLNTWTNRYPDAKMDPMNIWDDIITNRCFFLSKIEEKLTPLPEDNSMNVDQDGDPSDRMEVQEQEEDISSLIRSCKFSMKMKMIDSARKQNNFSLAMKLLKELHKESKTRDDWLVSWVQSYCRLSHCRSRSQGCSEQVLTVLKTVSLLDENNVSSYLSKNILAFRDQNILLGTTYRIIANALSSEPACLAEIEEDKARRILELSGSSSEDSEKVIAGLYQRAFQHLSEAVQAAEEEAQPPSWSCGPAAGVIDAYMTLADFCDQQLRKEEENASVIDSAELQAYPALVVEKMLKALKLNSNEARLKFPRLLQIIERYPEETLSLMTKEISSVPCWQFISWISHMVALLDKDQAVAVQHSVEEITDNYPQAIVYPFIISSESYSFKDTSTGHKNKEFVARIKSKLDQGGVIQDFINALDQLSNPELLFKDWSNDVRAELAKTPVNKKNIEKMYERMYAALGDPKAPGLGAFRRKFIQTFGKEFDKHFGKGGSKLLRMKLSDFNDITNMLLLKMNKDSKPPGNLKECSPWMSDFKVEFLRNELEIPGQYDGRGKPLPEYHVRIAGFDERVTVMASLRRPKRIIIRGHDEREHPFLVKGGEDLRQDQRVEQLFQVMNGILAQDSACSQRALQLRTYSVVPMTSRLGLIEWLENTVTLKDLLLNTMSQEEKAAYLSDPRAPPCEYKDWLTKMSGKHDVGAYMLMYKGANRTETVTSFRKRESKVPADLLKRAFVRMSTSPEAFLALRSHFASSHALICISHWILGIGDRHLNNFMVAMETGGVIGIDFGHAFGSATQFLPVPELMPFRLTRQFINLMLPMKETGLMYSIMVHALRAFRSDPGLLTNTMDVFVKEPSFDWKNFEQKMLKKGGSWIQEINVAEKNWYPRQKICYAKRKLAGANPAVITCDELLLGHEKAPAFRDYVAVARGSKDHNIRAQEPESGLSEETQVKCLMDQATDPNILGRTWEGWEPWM

[22] = Efflux ratio of apparent permeability in human Caco-2 cells; assay type: ADME, cell-based
[23] = Cmax in Balb/C mouse at 10 mg/kg,iv measured upto 48 hrs by LC-MS/MS analysis; assay type: ADME, organism-based; design: time < 48 hrs, dose 10 mg/kg, route iv; details: in vivo
[24] = Tmax in Balb/C mouse at 10 mg/kg,iv measured upto 48 hrs by LC-MS/MS analysis; assay type: ADME, organism-based; details: in vivo
[25] = Tmax in Balb/C mouse at 10 mg/kg,po measured upto 48 hrs by LC-MS/MS analysis; assay type: ADME, organism-based; details: in vivo
[26] = AUC (0 to t) in Balb/C mouse at 10 mg/kg,iv measured upto 48 hrs by LC-MS/MS analysis; assay type: ADME, organism-based; design: time < 48 hrs, dose 10 mg/kg, route iv; details: in vivo
[27] = AUC (0 to t) in Balb/C mouse at 10 mg/kg,po measured upto 48 hrs by LC-MS/MS analysis; assay type: ADME, organism-based; design: dose 10 mg/kg, time < 48 hrs, route po; details: in vivo
SW-620 [28] = assay: Antitumor activity against human SW620 cells xenografted in BALB/c nude mouse model assessed as tumor growth inhibition at 40 mg/kg, po administered once daily for 3 days weekly for 21 days by caliper method; assay type: functional, organism-based; details: time 21.0 day
SW-620 [29] = assay: Antitumor activity against human SW620 cells xenografted in BALB/c nude mouse model assessed as tumor growth inhibition at 20 mg/kg, po administered once daily for 3 days weekly after irinotecan post treatment for 21 days by caliper method relative to control; assay type: functional; details: SW-620, 504 h, time 21 day, read-out: TGI
[30] = Toxicity in BALB/c nude mouse assessed as drug tolerance at 20 to 40 mg/kg, po administered once daily for 3 days weekly after irinotecan post treatment for 21 days in presence of irinotecan; assay type: organism-based; details: in vivo, 504 h, dose 20-40 mg/kg, time 21 day
HCT-116 [31] = assay: Induction of DNA damage in human HCT-116 cells assessed as reduction in ATM phosphorylation at S1981 residue at 0.5 to 2 uM measured after 4 hrs by Western blot analysis; assay type: functional, cell-based; details: dose 0.5-2 µM
HCT-116 [32] = assay: Induction of DNA damage in human HCT-116 cells assessed as reduction in p21 phosphorylation at T145 residue at 0.5 to 2 uM measured after 4 hrs by Western blot analysis; assay type: functional, cell-based; details: dose 0.5-2 µM
HCT-116 [33] = assay: Induction of DNA damage in human HCT-116 cells assessed as decrease in gammaH2AX fluorescence intensity measured after 6 hrs in presence of irinotecan by fluorescence microscopic analysis; assay type: functional, cell-based; details: dose 0.5-2 µM

CC(C)NC(=O)N(C)c1cnc2ccc(-c3ccc(OCCCN4CCCCC4)nc3)cc2n1
CLH [1]: 1.8 mL/min/g | viability at 1 µM (HCT-116 [2]): > 83% | IC50 (HCT-116 [3]): > 9 µM | fold change (FC) (HCT-116 [4]): 750 | fold change (FC) (MCF7): 15 | fold change (FC) (SW-620 [5]): 2.8 | fold change (FC) (SW-620 [6]): 4.5 | viability at 4 µM (HCT-116 [7]): 7.37% | viability at 2 µM (HCT-116 [8]): 67.3% | viability at 4 µM (HCT-116 [9]): 68.3% | Activity (HCT-116 [10]): 18.1% | Activity (HCT-116 [11]): 14.2% | Activity (HCT-116 [12]): 1.01% | Activity (HCT-116 [13]): 0.92% | Activity (HCT-116 [14]): 0.6% | viability at 1 µM (HCT-116 [15]): 17.3% | viability at 2 µM (HCT-116 [16]): 14% | Activity (HCT-116 [17]): 49.9% | Activity (HCT-116 [18]): 30.4% | Activity (HCT-116 [19]): 1.73% | Activity (HCT-116 [20]): Active | inhibition [21]: < 50% | efflux ratio [22]: 2.37 | Cmax [23]: 6790 ng/mL | Tmax [24]: 4.8 min | Tmax [25]: 19.8 min | AUCt [26]: 13027.01 ng·h/mL | AUCt [27]: 13952.23 ng·h/mL | Activity (SW-620 [28]): inactive | inhibition in vivo at 20 mg/kg (SW-620 [29]): 77.2% | Activity [30]: Toxic | Activity (HCT-116 [31]): Active | Activity (HCT-116 [32]): Active | Activity (HCT-116 [33]): Active
